According to patent US12458688B2, “Epitopes” (Scancell Limited, priority 2018, dated 2025):

Legend:
HLA-HHDII/DP4 mice = assay: Ex vivo IFNγ ELISpot after peptide immunisation, HHDII/DP4 mice; format: in vivo, mouse; details: for IFNγ ELISpot response: 3 immunisations with CpG/MPLA, day 21
Procedure: C57BL/6 mice (Charles River, UK), HLA-DR4 mice (Model #4149, Taconic, USA), HLA-A2/DR1 (HHDII/DR1, Pasteur Institute), HLA-A2.1+/+HLA-DP4+/+hCD4+/+ (HLA-HHDII/DP4) transgenic mice (EM: 02221, European Mouse Mutant Archive) described in patent WO2013/017545 A1 (EMMA repository, France) were used, aged between 8 and 12 weeks. Peptides were dissolved in PBS to 1 mg/ml and then emulsified (a series of dilutions) with CpG ODN 1826 and MPLA 6 μg/mouse of each (Invivogen, UK). Peptides (25 μg/mouse) were injected subcutaneously at the base of the tail. Mice were immunised at days 1, 7 and 14 for peptide immunisation. Spleens were removed for analysis at day 21 unless stated otherwise.
ELISpot assays were performed using murine IFNγ, IL-17 and IL-10 capture and detection reagents according to the manufacturer's instructions (Mabtech, Sweden). In brief, anti-IFNγ, IL-17 and IL-10 specific antibodies were coated onto wells of 96-well Immobilin-P plate. Synthetic peptides (at various concentrations) and 5×10^5 per well splenocytes were added to wells of the plate in quadruplicate Tumour target cells were added where relevant at 5×10^4/well in triplicate and plates incubated for 40 hrs at 37° C. After incubation, captured IFNγ, IL-10 and IL-17 were detected by biotinylated anti-IFNγ, IL-10 and IL-17 antibodies and developed with a streptavidin alkaline phosphatase and chromogenic substrate. Lipopolysaccharide (LPS; 5 μg/ml) was used as a positive control. For MHC blocking studies, anti-CD4 blocking antibody (GK1.5) or anti-CD4 blocking antibody (RPA-T4) for HHDII/DP4 mice which express human CD4 and anti-CD8 blocking antibody (2.43) from Bioxcell were used at 20 μg/ml. Spots were analysed and counted using an automated plate reader (Cellular Technologies Ltd).
Screening was performed to identify potential homocitrullinated ALDOA epitopes in transgenic HHDII/DP4 and HHDII/DR1 mice. Mice were immunised with pools of human homocitrullinated peptides. […] Each pool was administered as three immunisations containing 20 μg of each peptide and CpG/MPLA as an adjuvant. After 21 days the mice were culled and the immune responses to each peptide within the immunising pool were assessed by ex vivo ELISpot in HHDII/DP4 (FIG. 4b) and HHDII/DR1 mice (FIG. 4d). […] Our predictions therefore identified 3/5 peptides which could induce a T cell response. […] Of the responding peptides ALDOA 74-93 Hcit and 140-157 Hcit peptides are homologous in human and mice therefore these two peptides were selected for further investigation. Minimal IL-10 (FIG. 6b) or IL-17 (FIG. 6c) responses were seen to Aldolase peptides in HHDII/DP4 mice.
Using this combination of predictions, 5 CyK8 peptides containing homocitrulline were synthesised (Table 4). Screening was performed to identify potential homocitrullinated Cyk8 epitopes in transgenic HHDII/DP4. Mice were immunised with pools of human homocitrullinated peptides. […] Each pool was administered as three immunisations containing 20 μg of each peptide and CpG/MPLA as an adjuvant. After 21 days the mice were culled and the immune responses to each peptide within the immunising pool were assessed by ex vivo ELISpot in HHDII/DP4 (FIG. 10a). […] The responses to CyK8 101-120 Hcit, 112-131 Hcit, 182-201 Hcit, 371-388 Hcit and 381-399 Hcit immunisation were characterised for cross reactivity to the wt peptide sequence. […] Thus a key characteristic of immunogenic peptides is they express homocitrulline. All of these peptides (100%) were immunogenic. Thus a high predicted HLA-DP4 binding affinity (<30), the presence of homocitrulline residues in the core region, the peptide being amphipathic in nature with a predominantely spiral conformational structure upon 3D modelling, and the existence of homology between the mouse and human sequences defines immunogenicity. When this model was applied retrospectively to include the vimentin and ALDOA peptides 8/9 (88%) were correctly predicted. […]

[1] = system: B16HHDII/iDP4 tumour cells; assay: Tumour therapy, B16HHDII/iDP4 tumour in HHDII/DP4 mice; format: in vivo, mouse; details: peptide with CpG/MPLA
Procedure: For tumour challenge experiments, mice were challenged with B16F1 cells s.c. on the right flank 3 days before primary immunisation (unless stated otherwise) and subsequently immunised as above. Tumour implants were carried out at dose of 2.5×10^4 cells/mouse for B16F1, 2.5×10^4 cells/mouse for B16F1 DR4, 4×10^5 cells/mouse for B16F1 HHDII/DP4, 5×10^5 cells/mouse for B16 HHDII/DR1, 1×10^5 cells/mouse for B16F1 HHDII/inducibleDP4, 5×10^4 cells/mouse for B16F1 inducible DR4. For studies involving depletion antibodies, 250 μg anti-mouse Ly6C antibody (clone Monts, BioXcell) was administered i.p. on days 8, 10, 12, 15, 17 and 19. 400 μg anti-mouse Ly6G antibody (clone 1A8, Biolegend) was administered i.p. on day 8 followed by 250 μg on days 11, 15 and 18. Anti-human CD4 antibody (clone OKT4, BioXcell) or anti-mouse CD8 antibody (clone 2.43, BioXcell) were administered at 500 μg dose on day 4 followed by 300 μg dose on days 8 and 11. Tumour growth was monitored twice weekly and mice were humanely euthanised once tumour reached ≥15 mm in diameter.
To provide further evidence for the role of CD4 T cell responses in tumour therapy HHDII/DP4 mice were implanted with B16HHDII/iDP4 tumour cells on day 1 and then immunised with peptides and CpG/MPLA on days 4, 8 and 11. Concurrent with peptide immunisation mice were also treated with CD4 or CD8 depleting antibody and tumour growth monitored. […] To show whether cyanate/isocyanic acid can cross cell membranes B16F1 melanoma cell line was cultured in vitro in the presence or absence of potassium cyanate which is in dynamic equilibrium with isocyanic acid. As a positive control lysates were also produced from in vitro cultured B16F1 cells and then treated with or without KCNO.

HLA-DP4 (human) [2] = biological target: HLA-DP4 (human)
HLA-DP4 (human) [3] = assay: DP4 competition ELISA; competitor biotinylated Hep B peptide; 10 ug unlabelled against 10 ug biotinylated Hep B
[4] = splenocytes after 7 days culture

Sequence of HLA-DP4 (human) (P20036 29-260, chain 1 of 2): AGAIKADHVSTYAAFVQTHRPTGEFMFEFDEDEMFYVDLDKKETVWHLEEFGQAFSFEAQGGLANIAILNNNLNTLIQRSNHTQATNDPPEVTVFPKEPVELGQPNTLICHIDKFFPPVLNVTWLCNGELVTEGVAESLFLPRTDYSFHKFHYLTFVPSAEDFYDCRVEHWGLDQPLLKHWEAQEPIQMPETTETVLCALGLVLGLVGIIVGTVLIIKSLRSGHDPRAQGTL
Sequence of HLA-DP4 (human) (P04440 30-258, chain 2 of 2, further chain): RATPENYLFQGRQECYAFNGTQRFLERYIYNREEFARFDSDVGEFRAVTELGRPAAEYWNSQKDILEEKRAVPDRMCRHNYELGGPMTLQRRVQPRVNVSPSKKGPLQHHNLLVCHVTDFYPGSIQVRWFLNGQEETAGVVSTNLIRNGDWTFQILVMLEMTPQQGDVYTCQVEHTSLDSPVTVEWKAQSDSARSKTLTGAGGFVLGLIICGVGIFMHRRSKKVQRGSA

Substance | cross reactivity of Hcit response to wt peptide (HLA-HHDII/DP4 mice) | IFNγ ELISpot response (HLA-HHDII/DP4 mice) | IFNγ response in presence of CD8 blocking antibody (HLA-HHDII/DP4 mice; [4]) | tumour growth / survival vs control [1] | IFNγ response in presence of CD4 blocking antibody (HLA-HHDII/DP4 mice; [4]) | OD (HLA-DP4 (human) [2]) | % inhibition (HLA-DP4 (human) [3]) [%]
A-Hcit-FINYV-Hcit-NCFRMTDQEAIQDL [NPM 266-287 Hcit] | significantly higher | stimulation of IFNγ responses | lost | Significant prevention of tumour growth |  |  | 
RNELESYAYSL-Hcit-NQIGD-Hcit- [BiP 562-579 Hcit] | significantly higher | stimulation of IFNγ responses |  | Significant prevention of tumour growth | loss of response |  | 
GSHAGN-Hcit-LAMQEFMILPVGAA [Alpha enolase 156-176 Hcit] |  | stimulation of IFNγ responses |  | Significant prevention of tumour growth | lost |  | 
Biotinylated Hep B 181-192 peptide |  |  |  |  |  | 0.85 OD (450 nm) | 
Hep B 181-192 peptide (unlabelled) |  |  |  |  |  |  | 47
FSLADAINTEF-Hcit-NTRTNE-Hcit-VELQ [Vimentin 86-108 Hcit] |  | stimulation of IFNγ responses |  | Significant prevention of tumour growth | loss of response |  | 
